Laboratory results from US12274711B2, “Method of determining Acute Myeloid Leukemia response to treatment with farnesyltransferase inhibitors” (Janssen Pharmaceutica NV, priority 2010, dated 2025).

Tests used:
[1] = test system: previously untreated, poor-risk AML; assay: Phase 2 study of tipifarnib in older adults with previously untreated, poor-risk AML (clinical response, overall survival); format: in vivo, human
Description: In an exemplary example, bone marrow samples are collected from an open label, multicenter, non-comparative phase 2 study investigating the efficacy and safety of farnesyltransferase inhibition with tipifarnib (R115777, ZARNESTRA®) in older adults with previously untreated, poor-risk AML.
Briefly, HI was defined as any bone marrow blast count less than 5% or a reduction in bone marrow blasts by at least half. Progressive disease (PD) was defined as either >50% increase in bone marrow or circulating blast % from baseline, or new appearance of circulating blasts (on at least 2 consecutive occasions). Stable disease (SD) was defined as any response not meeting CR, PR, HI, or PD criteria.
This study examined gene expression profiles of leukemic bone marrow samples from patients enrolled in a Phase 2 clinical trial of the farnesyltransferase inhibitor tipifarnib in elderly patients with previously untreated poor-risk acute myelogenous leukemia. Lancet et al. (2006). Bone marrow from 67 patients was collected before treatment with tipifarnib and leukemic myeloid cells were enriched by Ficoll-density centrifugation (Table 1). Good quality total RNA from 13 responders (9 CR, 4 HI), 8 stable disease and 13 progressive disease patients was amplified, labeled, and hybridized to the Affymetrix U133A GeneChip. A total of 30 samples were evaluated by qPCR for validation of specific genes and 32 samples were evaluated for N-RAS mutational status.

relapsed/refractory AML = assay: Independent dataset of 54 relapsed/refractory AML patients treated with tipifarnib; format: in vivo, human; conditions: 54 relapsed/refractory AML patient samples
Experimental: External validation of the TSP classifier was performed in an independent microarray dataset comprising of 54 relapsed/refractory AML patient samples. A diagnostic assay that predicts likely response to a cancer therapy should have a high sensitivity (and negative predictive value) since it is important to capture as many potential responders as possible. Therefore, to define an appropriate cutoff for testing the TSP classifier the need to obtain a high sensitivity of predicting responders while maintaining an acceptable level of specificity was considered. In the training set, the level of specificity that could be achieved ranged from approximately 30% to 100% when the sensitivity was set at 100% to 80%, respectively. To ensure the classifier would predict as many responders as possible a conservative cutoff that provided a specificity of approximately 60% in the training set was tested. When this cutoff was applied to the independent testing set of relapsed/refractory AML, the RASGRP1:APTX gene classifier stratified responders with 92% NPV and 27.6% PPV (compared to 18.5% prevalence) (FIG. 3C). The associated odds ratio for being a responder was 4.38.

[2] = Kaplan Meier analysis, RASGRP1 classifier, newly diagnosed AML (FIG. 1B)
[3] = qPCR RASGRP1:APTX classifier, cut-point 0, 30 patients (FIG. 3C)

## Cn1cncc1[C@@](N)(c1ccc(Cl)cc1)c1ccc2c(c1)c(-c1cccc(Cl)c1)cc(=O)n2C [tipifarnib]
[1]; All treated patients (n=158)
  CR, (%): (14) %
  CR, no.: 22
  HI, (%): (8) %
  HI, no.: 12
  PD, (%): (37) %
  PD, no.: 58
  PR, (%): (2) %
  PR, no.: 3
[1]; [2]
  median overall survival of the responders: 386 days
  median overall survival of those with progressive disease: 68 days
[1]; PGx profiled patients (n=67)
  CR, (%): (21) %
  CR, no.: 14
  HI, (%): (10) %
  HI, no.: 7
  PD, (%): (44) %
  PD, no.: 30
  PR, (%): (2) %
  PR, no.: 1
[1]; [3]
  median overall survival of the predicted resistant patients: 82 days
  median overall survival of those classified as responders: 295 days
relapsed/refractory AML
  prevalence of responders: 18.5%
